pKi: −log10 of the molar value.
Molecular target: T1, Adenosine deaminase (Homo sapiens, UniProt P00813)
T1 sequence (P00813 whole entry): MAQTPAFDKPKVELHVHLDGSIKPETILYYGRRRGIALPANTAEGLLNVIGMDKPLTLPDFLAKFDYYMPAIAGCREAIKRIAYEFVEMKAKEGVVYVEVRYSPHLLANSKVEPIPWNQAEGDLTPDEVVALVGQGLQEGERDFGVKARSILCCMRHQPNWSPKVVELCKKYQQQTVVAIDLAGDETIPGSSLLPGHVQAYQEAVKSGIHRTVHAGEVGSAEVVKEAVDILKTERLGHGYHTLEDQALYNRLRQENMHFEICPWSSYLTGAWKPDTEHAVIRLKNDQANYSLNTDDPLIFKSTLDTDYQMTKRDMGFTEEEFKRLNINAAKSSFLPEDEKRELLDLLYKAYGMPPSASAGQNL
Assay: Binding affinity towards Adenosine deaminase

Compound | pKi
OCC1OC(n2cnc3c2N=CCC[C@H]3O)C[C@H]1O (single isomer, unassigned) | 11.60
OCC1OC(n2cnc3c2N=CCC[C@H]3O)[C@@H](O)[C@H]1O (single isomer, unassigned) [CONFORMYCIN] | 11.00
